For this assay, the target named is PKCθ (Homo sapiens, UniProt Q04759). The experiment in a line: PKCθ enzyme data at 1 mM ATP. It counts as biochemical.
Sequence of PKCθ (Q04759 whole entry): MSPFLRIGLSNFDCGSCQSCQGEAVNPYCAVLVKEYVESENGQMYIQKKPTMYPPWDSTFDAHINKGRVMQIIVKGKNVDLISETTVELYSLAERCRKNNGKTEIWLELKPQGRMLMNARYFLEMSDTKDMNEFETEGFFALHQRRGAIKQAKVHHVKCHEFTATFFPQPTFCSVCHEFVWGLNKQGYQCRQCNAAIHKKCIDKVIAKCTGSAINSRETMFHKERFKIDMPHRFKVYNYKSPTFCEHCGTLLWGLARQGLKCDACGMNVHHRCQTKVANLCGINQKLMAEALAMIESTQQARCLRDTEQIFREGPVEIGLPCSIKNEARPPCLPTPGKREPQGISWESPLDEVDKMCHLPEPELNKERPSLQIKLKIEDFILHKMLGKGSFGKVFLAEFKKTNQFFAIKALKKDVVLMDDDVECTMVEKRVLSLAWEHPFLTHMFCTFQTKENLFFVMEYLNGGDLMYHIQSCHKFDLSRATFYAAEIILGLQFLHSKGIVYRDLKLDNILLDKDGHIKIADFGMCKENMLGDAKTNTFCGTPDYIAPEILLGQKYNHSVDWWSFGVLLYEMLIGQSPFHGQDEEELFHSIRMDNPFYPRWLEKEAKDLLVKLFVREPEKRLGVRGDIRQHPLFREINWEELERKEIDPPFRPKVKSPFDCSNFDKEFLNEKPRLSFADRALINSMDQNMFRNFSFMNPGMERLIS
Turning to `O=C1NC(=O)C(c2c[nH]c3ccsc23)=C1c1nc(N2CCC(N3CCCC3)CC2)nc2ccccc12` [E.2.6], the IC50 (as a rule, the midpoint of a concentration-inhibition curve) is under 100 nM.
The same measure for `O=C1NC(=O)C(c2c[nH]c3sccc23)=C1c1nc(N2CCC(O)(CN3CCCC3)CC2)nc2ccccc12` [E.1.25]: 100 to 500 nM; for `CC(C)(C)N1CCN(c2nc(C3=C(c4c[nH]c5sccc45)C(=O)NC3=O)c3ccccc3n2)CC1` [E.1.22]: under 100 nM.
The same measure for `CN1CCN(c2nc3c(c(C4=C(c5c[nH]c6sccc56)C(=O)NC4=O)n2)CCCC3)CC1` [F.4.16]: 100 to 500 nM; for `N#CC1CCN(c2nc(C3=C(c4c[nH]c5sccc45)C(=O)NC3=O)c3ccccc3n2)CC1` [E.1.9]: 100 to 500 nM; for `CN1CCN(c2nc(C3=C(c4c[nH]c5sccc45)C(=O)NC3=O)c3ccncc3n2)CC1` [F.4.24]: under 100 nM.
In the case of `CN1CCC(n2nc(C3=C(c4c[nH]c5sccc45)C(=O)NC3=O)c3ccccc32)CC1` [F.4.7] it was 100 to 500 nM.
Consider `O=C1NC(=O)C(c2c[nH]c3sccc23)=C1c1nc(N2CCn3c(nnc3C(F)(F)F)C2)nc2ccccc12` [E.1.20], for which the IC50 lay in the range of 100 to 500 nM.
`O=C1NC(=O)C(c2c[nH]c3sccc23)=C1c1nc(N2CCC(n3ccnc3)C2)nc2ccccc12` (stereo not shown) [E.1.23] returned an IC50 of 500 to 1000 nM.
Molecule `CCC1(N)CCN(c2nc(C3=C(c4c[nH]c5sccc45)C(=O)NC3=O)c3ccccc3n2)CC1` [E.1.43] came in with an IC50 of under 100 nM.
In turn, `O=C1NC(=O)C(c2c[nH]c3sccc23)=C1c1nc(N2CCN3CCC[C@@H]3C2)nc2ccccc12` [E.1.1, (R)-3-(2-(Hexahydropyrrolo[1,2-a]pyrazin-2(1H)-yl)quinazolin-4-yl)-4-(6H-thieno[2,3-b]pyrrol-4-yl)-1H-pyrrole-2,5-dione] yielded an IC50 of under 100 nM.
The same measure for `O=C1NC(=O)C(c2c[nH]c3ccsc23)=C1c1nc(N2CCC3(CCCNC3)C2)nc2ccccc12` (stereo not shown) [G.1.6]: 100 to 500 nM.
`CC(C)(O)c1ncc2n1CCN(c1nc(C3=C(c4c[nH]c5sccc45)C(=O)NC3=O)c3ccccc3n1)C2` [E.1.49] came in with a half-inhibitory concentration (IC50) of 100 to 500 nM.
Molecule `O=C1NC(=O)C(c2nn(C3CCNCC3)c3ccccc23)=C1c1c[nH]c2sccc12` [G.1.11] had an IC50 of 100 to 500 nM.
As for `O=C1NC(=O)C(c2c[nH]c3sccc23)=C1c1nc(N2CCC3(CC2)CNC3)nc2ccccc12` [G.1.13], the IC50 was 100 to 500 nM.
The same measure for `CN1CCN(c2nc(C3=C(c4c[nH]c5ccsc45)C(=O)NC3=O)c3ccccc3n2)CC1` [F.1.2, 3-(2-(4-Methylpiperazin-1-yl)quinazolin-4-yl)-4-(4H-thieno[3,2-b]pyrrol-6-yl)-1H-pyrrole-2,5-dione]: under 100 nM; for `CN1CCN(c2nc(C3=C(c4c[nH]c5sccc45)C(=O)NC3=O)c3ccccc3n2)CC1(C)C` [E.1.24]: under 100 nM; for `O=C1NC(=O)C(c2c[nH]c3ccsc23)=C1c1nc(N2CCNCC2)nc2ccccc12` [G.1.1, 3-(2-(piperazin-1-yl)quinazolin-4-yl)-4-(4H-thieno[3,2-b]pyrrol-6-yl)-1H-pyrrole-2,5-dione]: under 100 nM.
In the case of `CN1CCN(c2cc3ccc(F)cc3c(C3=C(c4c[nH]c5sccc45)C(=O)NC3=O)n2)CC1` [F.4.34] it was under 100 nM; in that of `CN1CCC(Cc2cn(C3=C(c4c[nH]c5sccc45)C(=O)NC3=O)c3ccccc23)CC1` [F.4.37], under 100 nM.
In the case of `O=C1NC(=O)C(c2c[nH]c3sccc23)=C1c1nc(N2CCN3CCC[C@H]3C2)nc2ccccc12` [E.1.44] it was under 100 nM; in that of `CCN1CCC(Cn2nc(C3=C(c4c[nH]c5sccc45)C(=O)NC3=O)c3ccccc32)CC1` [F.4.19], 100 to 500 nM.
`O=C1NC(=O)C(c2c[nH]c3sccc23)=C1c1nc(N2CCN3CCCC3C2)nc2ccccc12` (stereo not shown) [F.2.1] gave an IC50 of under 100 nM.
In the case of `O=C1NC(=O)C(c2c[nH]c3sccc23)=C1c1nc(N2CCC3(CCN3)CC2)nc2ccccc12` [E.1.35] it was under 100 nM; in that of `CN1CCN(c2nc(C3=C(c4c[nH]c5sccc45)C(=O)NC3=O)c3sccc3n2)CC1` [F.4.9], under 100 nM.
In the case of `COc1cccc2nc(N3CCN(C)CC3)nc(C3=C(c4c[nH]c5sccc45)C(=O)NC3=O)c12` [F.4.11] it was 100 to 500 nM; in that of `CC(C)(CO)N1CCN(c2nc(C3=C(c4c[nH]c5sccc45)C(=O)NC3=O)c3ccccc3n2)CC1` [E.1.56], under 100 nM.
In the case of `O=C1NC(=O)C(c2c3n(c4ccccc24)CCC(CO)C3)=C1c1c[nH]c2sccc12` (stereo not shown) [Example #1, 3-(8-(Hydroxymethyl)-6,7,8,9-tetrahydropyrido[1,2-a]indol-10-yl)-4-(6H-thieno[2,3-b]pyrrol-4-yl)-1H-pyrrole-2,5-dione] it was 100 to 500 nM; in that of `O=C1NC(=O)C(c2c[nH]c3sccc23)=C1c1nc(N2CCn3cnc(CO)c3C2)nc2ccccc12` [E.1.50], under 100 nM.
For `CN1CC2CCN(c3nc(C4=C(c5c[nH]c6sccc56)C(=O)NC4=O)c4ccccc4n3)CC2C1` (stereo not shown) [E.1.39], the IC50 is under 100 nM.
The same measure for `O=C1NC(=O)C(c2c[nH]c3sccc23)=C1c1nc(N2CC[C@@H](N3CCCC3)[C@H](F)C2)nc2ccccc12` [E.1.32]: under 100 nM; for `O=C1NC(=O)C(c2c[nH]c3sccc23)=C1c1nc(N2CCC23CCNCC3)nc2ccccc12` [E.1.36]: under 100 nM; for `CN1CCN(c2nc(C3=C(c4c[nH]c5ccsc45)C(=O)NC3=O)c3ccc(F)cc3n2)CC1` [F.3.5]: under 100 nM.
The same measure for `O=C1NC(=O)C(c2c[nH]c3sccc23)=C1c1nc(N2CCNCC2)nc2ccccc12` [G.1.5]: under 100 nM; for `O=C1NC(=O)C(c2c[nH]c3sccc23)=C1c1nc(N2CC[C@@H]3NCC[C@@H]3C2)nc2ccccc12` (relative stereo) [G.1.19]: under 100 nM; for `CN1CC[C@@H]2CN(c3nc(C4=C(c5c[nH]c6sccc56)C(=O)NC4=O)c4ccccc4n3)CC[C@@H]21` [E.1.59]: under 100 nM.
`O=C1NC(=O)C(c2c[nH]c3sccc23)=C1c1nc(N2CCN3C(=O)OCC3C2)nc2ccccc12` (stereo not shown) [E.1.15] registered a concentration for half-maximal inhibition (IC50) of 500 to 1000 nM.
Turning to `O=C1NC(=O)C(c2c[nH]c3sccc23)=C1c1nc(N2CCC(CN3CCCC3)CC2)nc2ccccc12` [E.1.11], the IC50 was in the range of 100 to 500 nM.
In the case of `Cc1nccn1CC1CCN(c2nc(C3=C(c4c[nH]c5sccc45)C(=O)NC3=O)c3ccccc3n2)CC1` [E.1.3] it was 100 to 500 nM; in that of `O=C1NC(=O)C(c2nn(CC3CCNCC3)c3ccccc23)=C1c1c[nH]c2sccc12` [G.1.12], under 100 nM; in that of `C[C@@H]1CN(C2CCN(c3nc(C4=C(c5c[nH]c6sccc56)C(=O)NC4=O)c4ccccc4n3)CC2)C[C@H](C)O1` [E.1.6], 100 to 500 nM.
`NC1(CO)CCN(c2nc(C3=C(c4c[nH]c5sccc45)C(=O)NC3=O)c3ccccc3n2)CC1` [E.1.57] showed an IC50 of under 100 nM.
With `Cc1noc(C2CCN(c3nc(C4=C(c5c[nH]c6sccc56)C(=O)NC4=O)c4ccccc4n3)CC2)n1` [E.1.10], the IC50 was 500 to 1000 nM.
The same measure for `CN(C)CC1CCN(c2nc(C3=C(c4c[nH]c5sccc45)C(=O)NC3=O)c3ccccc3n2)CC1` [E.1.5]: under 100 nM; for `NC1(CCO)CCN(c2nc(C3=C(c4c[nH]c5sccc45)C(=O)NC3=O)c3ccccc3n2)CC1` [E.1.34]: under 100 nM.
The same measure for `NC1(C(=O)NC2CC2)CCN(c2nc(C3=C(c4c[nH]c5sccc45)C(=O)NC3=O)c3ccccc3n2)CC1` [E.1.58]: under 100 nM; for `CN1CCN(c2nccc(C3=C(c4c[nH]c5sccc45)C(=O)NC3=O)n2)CC1` [F.4.8]: 500 to 1000 nM; for `CN1CC(Cn2nc(C3=C(c4c[nH]c5sccc45)C(=O)NC3=O)c3ccccc32)C1` [F.4.22]: under 100 nM.
As for `CNC1CCN(c2nc(C3=C(c4c[nH]c5sccc45)C(=O)NC3=O)c3ccccc3n2)C1` (stereo not shown) [G.1.7], the concentration for half-maximal inhibition (IC50) fell in the range of 100 to 500 nM.
In the case of `NCC1CCN(c2nc(C3=C(c4c[nH]c5ccsc45)C(=O)NC3=O)c3ccccc3n2)CC1` [G.1.4] it was 100 to 500 nM; in that of `CC(C)(O)CN1CCN(c2nc(C3=C(c4c[nH]c5sccc45)C(=O)NC3=O)c3ccccc3n2)CC1` [E.1.55], under 100 nM; in that of `CN1CCN(c2nc(C3=C(c4c[nH]c5ccsc45)C(=O)NC3=O)c3ccsc3n2)CC1` [F.3.4], under 100 nM.
Consider `CN1CCN(c2cc(C3=C(c4c[nH]c5ccsc45)C(=O)NC3=O)c3ccccc3n2)CC1` [F.3.3], for which the IC50 was under 100 nM.
For the molecule `CN(C)CC1CCn2c(c(C3=C(c4c[nH]c5sccc45)C(=O)NC3=O)c3ccccc32)C1` (stereo not shown) [Example #2, 3-(8-((Dimethylamino)methyl)-6,7,8,9-tetrahydropyrido[1,2-a]indol-10-yl)-4-(6H-thieno[2,3-b]pyrrol-4-yl)-1H-pyrrole-2,5-dione], the IC50 was under 100 nM.
As to `CN1CCN(c2nc(C3=C(c4c[nH]c5sccc45)C(=O)NC3=O)c3ncccc3n2)CC1` [F.4.25], the IC50 was 100 to 500 nM.
The same measure for `CN1CCN(C2CCN(c3nc(C4=C(c5c[nH]c6sccc56)C(=O)NC4=O)c4ccccc4n3)CC2)CC1` [E.1.8]: under 100 nM; for `O=C1NC(=O)C(c2c[nH]c3sccc23)=C1c1nc(N2CCn3c(cnc3CO)C2)nc2ccccc12` [E.1.48]: under 100 nM.
As to `CNCC1CCN(c2nc(C3=C(c4c[nH]c5sccc45)C(=O)NC3=O)c3ccccc3n2)CC1` [G.1.15], the IC50 was 100 to 500 nM.
The molecule `CN1CCN(c2nc(C3=C(c4c[nH]c5sccc45)C(=O)NC3=O)c3ccccc3n2)CC1` [F.1.1, 3-(2-(4-Methylpiperazin-1-yl)quinazolin-4-yl)-4-(6H-thieno[2,3-b]pyrrol-4-yl)-1H-pyrrole-2,5-dione] came in with an IC50 of under 100 nM.
The same measure for `Cc1cccc2nc(N3CCN(C)CC3)nc(C3=C(c4c[nH]c5sccc45)C(=O)NC3=O)c12` [F.4.30]: under 100 nM.
In the case of `Cn1cnc2c1CCN(c1nc(C3=C(c4c[nH]c5sccc45)C(=O)NC3=O)c3ccccc3n1)C2` [E.1.54] it was under 100 nM.
In the case of `O=C1NC(=O)C(c2c[nH]c3sccc23)=C1c1nc(N2CCC(CN3CCOCC3)CC2)nc2ccccc12` [E.1.16] it was 100 to 500 nM; in that of `O=C1NC(=O)C(c2c[nH]c3sccc23)=C1c1nc(N2CCn3cncc3C2)nc2ccccc12` [E.1.46], under 100 nM; in that of `Cc1ccc2nc(N3CCN(C)CC3)nc(C3=C(c4c[nH]c5sccc45)C(=O)NC3=O)c2c1` [F.4.31], under 100 nM.
